Data from patent publication US20200404919A1, “USE OF HETEROARYL-TRIAZOLE AND HETEROARYL-TETRAZOLE COMPOUNDS AS PESTICIDES IN PLANT PROTECTION” (Bayer Aktiengesellschaft, priority 2018, published 2020).

Experiments:
Format in all cases: in vivo
Phaedon cochleariae = Phaedon cochleariae - spray test; conditions: in Brassica rapa, foliar, 168 h, read-out: mortality in %
Description: Phaedon cochleariae—Spray Test
(§1) To produce a suitable preparation of active compound, 1 part by weight of active compound is mixed with the stated amount of solvents and is diluted with water, containing an emulsifier concentration of 1000 ppm, to the desired concentration. Further test concentrations are prepared by dilution with emulsifier containing water.
Chinese cabbage (Brassica pekinensis) leaf disks are sprayed with a preparation of the active ingredient of the desired concentration. Once dry, the leaf disks are infested with mustard beetle larvae (Phaedon cochleariae).
After 7 days mortality in % is determined. 100% means all beetle larvae have been killed and 0% means none of the beetle larvae have been killed.

Diabrotica balteata = Diabrotica balteata - spray test; conditions: 168 h, 160 μg/well, germinated wheat seeds, larvae, after 7 days, read-out: efficacy in %
Description: Diabrotica balteata—Spray Test
as §1, with “solvent,” for “solvents”, “and the concentrate” for “and”
Soaked wheat seeds (Triticum aestivum) are placed in a multiple well plate filled with agar and some water and are incubated for 1 day to germinate (5 seeds per well). The germinated wheat seeds are sprayed with a test solution containing the desired concentration of the active ingredient. Afterwards each unit is infected with 10-20 larvae of the banded cucumber beetle (Diabrotica balteata).
After 7 days efficacy in % is determined. 100% means all the seedlings have grown up like in the untreated, uninfected control; 0% means none of the seedlings have grown.

Nilaparvata lugens = Nilaparvata lugens - spray test 1; conditions: in Oryza sativa, 96 h, read-out: mortality in %, 500 g/ha, rice plants, after 4 days
Description: Nilaparvata lugens—Spray Test 1
as §1
Rice plants (Oryza sativa) are sprayed with a preparation of the active ingredient of the desired concentration and the plants are infested with the brown planthopper (Nilaparvata lugens).
After 4 days mortality in % is determined. 100% means all planthoppers have been killed and 0% means none of the planthoppers have been killed.

Spodoptera frugiperda = Spodoptera frugiperda - spray test; conditions: in Zea mays, 168 h, read-out: mortality in %
Description: Spodoptera frugiperda—Spray Test
as §1
Maize (Zea mays) leaf sections are sprayed with a preparation of the active ingredient of the desired concentration. Once dry, the leaf sections are infested with fall armyworm larvae (Spodoptera frugiperda).
After 7 days mortality in % is determined. 100% means all caterpillars have been killed and 0% means none of the caterpillars have been killed.

Nezara viridula = Nezara viridula - spray test 1; conditions: in Hordeum vulgare, 96 h, read-out: mortality in %
Description: Nezara viridula—Spray Test 1
as §1, with “solvent,” for “solvents”, “and the concentrate” for “and”
Barley plants (Hordeum vulgare) infested with larvae of the southern green stink bug (Nezara viridula) are sprayed with a test solution containing the desired concentration of the active ingredient.
After 4 days mortality in % is determined. 100% means all the stink bugs have been killed; 0% means none of the stink bugs have been killed.

Myzus persicae = Myzus persicae - oral test; conditions: 120 h, read-out: mortality in %
Description: To produce a suitable preparation of active compound, 1 part by weight of active compound is mixed with the stated amount of solvent, and the concentrate is diluted with water to the desired concentration. 50 μl compound solution is filled in microtiter plates and 150 μl IPL41 insect medium (33%+15% sugar) is added to obtain a total volume of 200 μl per well. Afterwards the plates are sealed with parafilm through which a mixed population of the green peach aphid (Myzus persicae) can suck on the compound preparation.
(§2) After 5 days mortality in % is determined. 100% means all aphids have been killed and 0% means none of the aphids have been killed.

Aphis gossypii = Aphis gossypii - oral test; conditions: 120 h, read-out: mortality in %
Description: Solvent: 100 parts by weight acetone
To produce a suitable preparation of active compound, 1 part by weight of active compound is mixed with the stated amount of solvent, and the concentrate is diluted with water to the desired concentration.
50 μl compound solution is filled in microtiter plates and 150 μl IPL41 insect medium (33%+15% sugar) is added to obtain a total volume of 200 μl per well. Afterwards the plates are sealed with parafilm through which a mixed population of the cotton aphid (Aphis gossypii) can suck on the compound preparation.
as §2

| Compound | mortality at 500 g/ha (Phaedon cochleariae) [%] | pest or weed control at 160 µg/disc, 160 µg/well (Diabrotica balteata) [%] | mortality at 500 g/ha (Nilaparvata lugens) [%] | mortality at 500 g/ha (Spodoptera frugiperda) [%] | mortality at 500 g/ha (Nezara viridula) [%] | mortality at 20 ppm (Myzus persicae) [%] | mortality at 100 ppm (Aphis gossypii) [%] |
| --- | --- | --- | --- | --- | --- | --- | --- |
| CC(c1ncnn1-c1ccc(Cl)nc1)N(CC1CC1)C(=O)c1cc(Cl)cc(C(F)(F)F)c1 (stereo not shown) [Compound I-105] | 100 | 100 | – | – | – | – | – |
| C[C@H](NC(=O)c1cc(Cl)cc(C(F)(F)F)c1)c1nc(C(F)(F)F)nn1-c1ccc(Cl)cn1 [Compound I-131, 3-chloro-N-{(1S)-1-[1-(5-chloropyridin-2-yl)-3-(trifluoromethyl)-1H-1,2,4-triazol-5-yl]ethyl}-5-(trifluoromethyl)benzamide] | – | 80 | 100 | 100 | 100 | – | – |
| CC(c1ncnn1-c1ccc(Cl)cn1)N(CC1CC1)C(=O)c1cc(Cl)cc(C(F)(F)F)c1 (stereo not shown) [Compound I-84, 3-chloro-N-[1-[2-(5-chloro-2-pyridyl)-1,2,4-triazol-3-yl]ethyl]-N-(cyclopropylmethyl)-5-(trifluoromethyl)benzamide] | 100 | 100 | – | 100 | 100 | 100 | – |
| C[C@H](NC(=O)c1cc(F)cc(C#N)c1)c1ncnn1-c1ncccn1 [Compound I-128] | – | 100 | – | – | 100 | – | – |
| CC(c1ncnn1-c1ncccn1)N(CC1COC1)C(=O)c1cc(Cl)cc(C(F)(F)F)c1 (stereo not shown) [Compound I-118] | 83 | 100 | – | 100 | – | 100 | – |
| CC(NC(=O)c1cc(Cl)cc(Cl)c1)c1ncnn1-c1ncc(Br)cn1 (stereo not shown) [Compound I-130] | – | 100 | – | 100 | – | – | – |
| C[C@H](NC(=O)c1cncc(C(F)(F)F)c1)c1nc(C(F)(F)F)nn1-c1ccc(Cl)cn1 [Compound I-135] | – | 100 | – | 100 | – | – | – |
| CC(c1ncnn1-c1cccnc1)N(CC1CC1)C(=O)c1cc(Cl)cc(C(F)(F)F)c1 (stereo not shown) [Compound I-85] | – | 100 | – | – | – | 100 | 100 |
| CC(c1ncnn1-c1ncccn1)N(CC(F)F)C(=O)c1cccc(SC(F)(F)F)c1 (stereo not shown) [Compound I-122] | 100 | 100 | 100 | – | 100 | 100 | 100 |
| CC(c1ncnn1-c1ncccn1)N(CC1CCC1)C(=O)c1cc(Cl)cc(C(F)(F)F)c1 (stereo not shown) [Compound I-101] | – | 100 | – | 100 | – | 100 | 100 |
| CC(c1ncnn1-c1ccnc(Cl)c1)N(CC1CC1)C(=O)c1cc(Cl)cc(C(F)(F)F)c1 (stereo not shown) [Compound I-102] | – | 100 | – | – | – | – | – |
| CC(c1ncnn1-c1ncccn1)N(CC1CC1)C(=O)c1cc(C#N)cc(C(F)(F)F)c1 (stereo not shown) [Compound I-50, 3-cyano-N-(cyclopropylmethyl)-N-[1-(2-pyrimidin-2-yl-1,2,4-triazol-3-yl)ethyl]-5-(trifluoromethyl)benzamide] | 100 | 100 | – | 100 | 100 | 100 | 100 |
| C[C@H](NC(=O)c1cc(Cl)cc(C(F)(F)F)c1)c1ncnn1-c1ccc(Br)cn1 [Compound I-129, N-[(1S)-1-[2-(5-bromo-2-pyridyl)-1,2,4-triazol-3-yl]ethyl]-3-chloro-5-(trifluoromethyl)benzamide] | – | 100 | – | 100 | 100 | – | – |
| CC(c1ncnn1-c1cccc(Cl)n1)N(CC1CC1)C(=O)c1cc(Cl)cc(C(F)(F)F)c1 (stereo not shown) [Compound I-87] | – | 100 | – | – | – | – | – |
| C[C@H](NC(=O)c1cc(Cl)cc(Br)c1)c1ncnn1-c1ccc(Cl)cn1 [Compound I-137, 3-bromo-5-chloro-N-[(1S)-1-[2-(5-chloro-2-pyridyl)-1,2,4-triazol-3-yl]ethyl]benzamide] | – | 100 | – | 100 | 100 | – | – |
| CC(c1ncnn1-c1ncccn1)N(CC1CC1)C(=O)c1cncc(SC(F)(F)F)c1 (stereo not shown) [Compound I-90] | 100 | – | – | – | – | 100 | 100 |
| CC(c1ncnn1-c1ncc(Br)cn1)N(CC1CC1)C(=O)c1cc(Cl)cc(C(F)(F)F)c1 (stereo not shown) [Compound I-92, N-[1-[2-(5-bromopyrimidin-2-yl)-1,2,4-triazol-3-yl]ethyl]-3-chloro-N-(cyclopropylmethyl)-5-(trifluoromethyl)benzamide] | 100 | 100 | – | 100 | – | 100 | 100 |
| C[C@H](NC(=O)c1cc(Cl)cc(C(F)(F)F)c1)c1ncnn1-c1ccc(I)cn1 [Compound I-132, 3-chloro-N-[(1S)-1-[2-(5-iodo-2-pyridyl)-1,2,4-triazol-3-yl]ethyl]-5-(trifluoromethyl)benzamide] | – | 100 | – | 100 | 100 | – | – |
| C[C@H](NC(=O)c1cc(C(F)(F)F)cc(C(F)(F)F)c1)c1nc(C(F)(F)F)nn1-c1ccc(Cl)cn1 [Compound I-136, N-[(1S)-1-[2-(5-chloro-2-pyridyl)-5-(trifluoromethyl)-1,2,4-triazol-3-yl]ethyl]-3,5-bis(trifluoromethyl)benzamide] | – | 100 | – | 100 | – | – | – |
| CC(c1ncnn1-c1ccncc1)N(CC1CC1)C(=O)c1cc(Cl)cc(C(F)(F)F)c1 (stereo not shown) [Compound I-94] | – | 100 | – | – | – | 100 | 100 |
| CC(c1ncnn1-c1cccnn1)N(CC1CC1)C(=O)c1cc(Cl)cc(C(F)(F)F)c1 (stereo not shown) [Compound I-103] | 100 | 100 | – | – | – | 90 | 100 |
| C[C@H](NC(=O)c1cc(F)c(Cl)c(F)c1)c1ncnn1-c1ncccn1 [Compound I-133] | – | 100 | – | – | – | – | – |
| CC(NC(=O)c1cccc(C#N)c1)c1ncnn1-c1ncccn1 (stereo not shown) [Compound I-52] | 100 | – | 100 | – | 100 | 90 | 100 |
| CC(c1ncnn1-c1ncccn1)N(CC1CC1)C(=O)c1ccc(Cl)c(Cl)c1 (stereo not shown) [Compound I-104] | 100 | 100 | – | – | 100 | 100 | 90 |
| CC(c1ncnn1-c1ncccn1)N(CCC(F)(F)F)C(=O)c1cc(Cl)cc(C(F)(F)F)c1 (stereo not shown) [Compound I-26, 3-chloro-N-[1-(2-pyrimidin-2-yl-1,2,4-triazol-3-yl)ethyl]-5-(trifluoromethyl)-N-(3,3,3-trifluoropropyl)benzamide] | 100 | 100 | 90 | 100 | – | 100 | 100 |
